In article PMC11470957, “Principles of paralog-specific targeted protein degradation engaging the C-degron E3 KLHDC2” (Nature Communications, 2024):
Several values for one entry are separate records, joined by “and”; a condition that tells them apart may be missing. Equal entries are not always repeated. Where two headings read alike, the source gives them in different places.

Biological target: BRD3 (Homo sapiens, UniProt Q15059)
Experiment: Western blot of BRD3 levels after cellular dosing
Conditions: for DC50: read-out: BRD3 DC50
[1] = U2OS, read-out: BRD3 level, Western blot quantification (DMSO = 100), Fig S6d, U2OS KO/rescue Dose Response
[2] = read-out: BRD3 level, Western blot quantification (DMSO = 100), Fig S6e, PC3 KO/rescue Dose Response

Sequence of BRD3 (Q15059 whole entry): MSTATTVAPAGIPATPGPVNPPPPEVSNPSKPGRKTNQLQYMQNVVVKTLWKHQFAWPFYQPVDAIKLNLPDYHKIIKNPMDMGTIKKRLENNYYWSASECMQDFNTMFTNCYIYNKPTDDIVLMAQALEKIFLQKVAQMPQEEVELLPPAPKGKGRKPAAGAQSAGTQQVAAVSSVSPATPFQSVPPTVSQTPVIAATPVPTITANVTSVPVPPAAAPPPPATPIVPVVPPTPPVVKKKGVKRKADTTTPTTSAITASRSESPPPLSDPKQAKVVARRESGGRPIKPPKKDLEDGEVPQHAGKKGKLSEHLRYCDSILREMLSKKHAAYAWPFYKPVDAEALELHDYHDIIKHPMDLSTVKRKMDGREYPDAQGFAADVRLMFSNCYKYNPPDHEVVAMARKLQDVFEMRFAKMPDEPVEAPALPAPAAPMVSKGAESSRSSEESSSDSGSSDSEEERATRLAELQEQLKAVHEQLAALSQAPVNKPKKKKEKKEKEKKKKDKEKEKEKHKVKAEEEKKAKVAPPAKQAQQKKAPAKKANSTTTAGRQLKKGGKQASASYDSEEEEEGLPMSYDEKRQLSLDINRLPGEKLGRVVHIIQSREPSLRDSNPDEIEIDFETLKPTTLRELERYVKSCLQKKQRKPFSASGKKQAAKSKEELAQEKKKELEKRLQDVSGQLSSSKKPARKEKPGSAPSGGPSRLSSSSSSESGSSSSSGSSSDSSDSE

Structure (SMILES): COC(=O)CNC(=O)Cc1csc(-c2ccc3cccc(OCCN4CCN(C(=O)C[C@@H]5N=C(c6ccc(Cl)cc6)c6c(sc(C)c6C)-n6c(C)nnc65)CC4)c3c2)n1 [SJ46420]
- remaining activity at 5 µM (SK-BR-3, 8 h, read-out: BRD3 level, Western blot quantification (DMSO = 100), Fig S6g, SKBR3 Time course, 5 uM, 8hr): 10.6%
- remaining activity at 5 µM (SK-BR-3, read-out: BRD3 level, Western blot quantification (DMSO = 100), Fig S6i, SKBR3, 5uM): 27.2%
- potency relative to K2-B4-3e (more potent) (SKBR3 4 h, U2OS 8 h): ~ 3 fold and 2-3 fold
- selectivity of BRD3 over BRD4 degradation (SKBR3, 8 hr): ~ 5 fold
- selectivity of BRD3 over BRD4 degradation (SKBR3, 24 hr): ~ 1.5 fold
- reduction of the levels of BRD3 (SKBR3, within two hours): ~ 70%
- BRD3 Dmax (U2OS KO/Rescue, 24 h dose): ~ 100%
- selectivity for BRD3 over BRD2 and BRD4 (DC50) (U2OS KO/rescue): ~ 2.5 fold
- time of maximal degradation (U2OS cells): 8 h
- remaining activity at 5 µM (U2OS, 2 h, read-out: BRD3 level relative to DMSO (100%), U2OS, 5µM, 2hr, Fig S6h): 93 ± 9.8%
- remaining activity at 5 µM (U2OS, 2 h, read-out: BRD3 level, Western blot quantification (DMSO = 100), Fig S6h, U2OS Time course, 5uM, 2hr): 91.4%
- remaining activity at 5 µM (U2OS, 4 h, read-out: BRD3 level relative to DMSO (100%), U2OS, 5µM, 4hr, Fig S6h): 68 ± 9.8%
- remaining activity at 5 µM (U2OS, 4 h, read-out: BRD3 level, Western blot quantification (DMSO = 100), Fig S6h, U2OS Time course, 5uM, 4hr): 71.3%
- remaining activity at 5 µM (U2OS, 8 h, read-out: BRD3 level relative to DMSO (100%), U2OS, 5µM, 8hr, Fig S6i): 41 ± 5.4%
- remaining activity at 5 µM (U2OS, 8 h, read-out: BRD3 level relative to DMSO (100%), U2OS, 5µM, 8hr, Fig S6h): 28 ± 9.8%
- remaining activity at 5 µM (U2OS, 8 h, read-out: BRD3 level, Western blot quantification (DMSO = 100), Fig S6h, U2OS Time course, 5uM, 8hr): 31.8%
- remaining activity at 5 µM (U2OS, 24 h, read-out: BRD3 level relative to DMSO (100%), U2OS DC2KO (KLHDC2 knockout), 5µM, 24 h, Fig 6b): 100 ± 6.8%
- remaining activity at 0.16 µM (U2OS, 24 h, read-out: BRD3 level relative to DMSO (100%), U2OS KO/Rescue, 0.16µM, 24 h, Fig S6d): 85 ± 13%
- remaining activity at 0.31 µM (U2OS, 24 h, read-out: BRD3 level relative to DMSO (100%), U2OS KO/Rescue, 0.31µM, 24 h, Fig S6d): 65 ± 14%
- remaining activity at 0.63 µM (U2OS, 24 h, read-out: BRD3 level relative to DMSO (100%), U2OS KO/Rescue, 0.63µM, 24 h, Fig S6d): 39 ± 8.5%
- remaining activity at 1 µM (U2OS, 24 h, read-out: BRD3 level relative to DMSO (100%), U2OS KO/Rescue, 1µM + co-dosing 1µM MLN4924, 24 h, Fig 6d): 120 ± 1.5%
- remaining activity at 1 µM (U2OS, 24 h, read-out: BRD3 level relative to DMSO (100%), U2OS KO/Rescue, 1µM, 24 h, Fig 6c): 45 ± 3.6%
- remaining activity at 1 µM (U2OS, 24 h, read-out: BRD3 level relative to DMSO (100%), U2OS KO/Rescue, 1µM, 24 h, Fig 6d): 25 ± 8.2%
- remaining activity at 1.3 µM (U2OS, 24 h, read-out: BRD3 level relative to DMSO (100%), U2OS KO/Rescue, 1.3µM, 24 h, Fig S6d): 12 ± 1.8%
- remaining activity at 2.5 µM (U2OS, 24 h, read-out: BRD3 level relative to DMSO (100%), U2OS KO/Rescue, 2.5µM, 24 h, Fig S6d): 0.77 ± 0.16%
- remaining activity at 5 µM (U2OS, 24 h, read-out: BRD3 level relative to DMSO (100%), U2OS KO/Rescue, 5µM, 24 h, Fig S6d): 0.34 ± 0.11%
- remaining activity at 5 µM (U2OS, 24 h, read-out: BRD3 level relative to DMSO (100%), U2OS, 5µM, 24 h, Fig 6b): 30.9 ± 4.1%
- remaining activity at 5 µM (U2OS, 24 h, read-out: BRD3 level relative to DMSO (100%), U2OS, 5µM, 24hr, Fig S6h): 41 ± 9.8%
- remaining activity at 5 µM (U2OS, 24 h, read-out: BRD3 level, Western blot quantification (DMSO = 100), Fig S6h, U2OS Time course, 5uM, 24hr): 43.5%
- selectivity of BRD3 over BRD4 degradation (U2OS, 24 hr): ~ 1.4 fold
- remaining activity at 1.59176 µM (U2OS, read-out: BRD3 (DMSO = 100), U2OS KO/Rescue cells, Log SJ46420 (uM) 1.59176, Rep1, Rep2): 95%
- remaining activity at 2.49485 µM (U2OS, read-out: BRD3 (DMSO = 100), U2OS KO/Rescue cells, Log SJ46420 (uM) 2.49485, Rep1, Rep2): 47.6%
- remaining activity at 2.79588 µM (U2OS, read-out: BRD3 (DMSO = 100), U2OS KO/Rescue cells, Log SJ46420 (uM) 2.79588, Rep1, Rep2): 11.4%
- remaining activity at 3.09691 µM (U2OS, read-out: BRD3 (DMSO = 100), U2OS KO/Rescue cells, Log SJ46420 (uM) 3.09691, Rep1, Rep2): 0.66%
- remaining activity at 3.39794 µM (U2OS, read-out: BRD3 (DMSO = 100), U2OS KO/Rescue cells, Log SJ46420 (uM) 3.39794, Rep1, Rep2): 0.34%
- remaining activity at 3.69897 µM (U2OS, read-out: BRD3 (DMSO = 100), U2OS KO/Rescue cells, Log SJ46420 (uM) 3.69897, Rep1, Rep2): 0.161%
- Dmax (U2OS, read-out: BRD3 Dmax, U2OS KO/Rescue, 24 h dose): 99.9%
- remaining activity at 5 µM (U2OS, read-out: BRD3 level, Western blot quantification (DMSO = 100), Fig 6b, U2OS, 5 uM): 33.9%
- remaining activity at 5 µM (U2OS, read-out: BRD3 level, Western blot quantification (DMSO = 100), Fig S6i, U2OS, 5uM): 52.9%
- remaining activity at 0.156 µM (U2OS, read-out: BRD3 level, Western blot quantification (DMSO = 100), Fig S6d, U2OS KO/rescue Dose Response, 0.156 uM): 108%
- remaining activity at 0.313 µM (U2OS, read-out: BRD3 level, Western blot quantification (DMSO = 100), Fig S6d, U2OS KO/rescue Dose Response, 0.313 uM): 70.7%
- remaining activity at 0.625 µM [1]: 29.3%
- remaining activity at 1.25 µM [1]: 11.3%
- remaining activity at 2.5 µM (U2OS, read-out: BRD3 level, Western blot quantification (DMSO = 100), Fig S6d, U2OS KO/rescue Dose Response, 2.5 uM): 5.44%
- stability in cells (from time-course of BRD3 levels between 8 h and 24 h): relatively unstable
- DC50 (22Rv1, 24 h dose): 458 nM
- DC50 (PC3, 24 h dose): 487 nM
- Dmax (read-out: BRD3 Dmax, PC3, 24 h dose): 99.9%
- remaining activity at 5 µM (read-out: BRD3 level, Western blot quantification (DMSO = 100), Fig 6b, KO/Rescue, 5 uM): 105%
- remaining activity at 1 µM (read-out: BRD3 level, Western blot quantification (DMSO = 100), Fig 6c, 1 uM): 43.9%
- remaining activity at 1 µM (read-out: BRD3 level, Western blot quantification (DMSO = 100), Fig 6d, 1 uM): 19%
- remaining activity at 1 µM (read-out: BRD3 level, Western blot quantification (DMSO = 100), Fig 6d, 1uM together with 1uM MLN4924): 120%
- remaining activity at 0.625 µM [2]: 47.6%
- remaining activity at 1.25 µM [2]: 11.4%
- remaining activity at 2.5 µM (read-out: BRD3 level, Western blot quantification (DMSO = 100), Fig S6e, PC3 KO/rescue Dose Response, 2.5 uM): 0.66%
- remaining activity at 5 µM (read-out: BRD3 level, Western blot quantification (DMSO = 100), Fig S6e, PC3 KO/rescue Dose Response, 5 uM): 0.34%
- remaining activity at 10 µM (read-out: BRD3 level, Western blot quantification (DMSO = 100), Fig S6e, PC3 KO/rescue Dose Response, 10uM): 0.161%
- BRD degradation activity in U2OS cells (wild-type U2OS, 24 h dose, Fig 6b): efficiently and selectively targeted BRD3 for degradation
